In PMC3804772, “Rational Design, Synthesis, and Biological Evaluation of Third Generation α-Noscapine Analogues as Potent Tubulin Binding Anti-Cancer Agents” (PLoS ONE, 2013):

Legend:
[1] = test system: cancer cells of different tissues of origin (CEM, HeLa, A549, MCF-7); test: In vitro cell proliferation assay (SRB), panel of four cancer cell lines; format: cell-based; conditions: Homo sapiens; range over cancer cells of different tissues of origin
Experimental: (§1) The cell proliferation assay was performed in 96-well plates as described previously. A panel of four cancer cell lines of different tissues of origins, namely: human lung adenocarcinoma epithelial cell line (A549), human lymphoblast cell line (CEM), human cervix cell line (HeLa) and human breast epithelial cell line (MCF-7) were studied. These cell lines were obtained from the National Repository of Animal Cell Culture, National Centre for Cell Sciences, Pune (NCCS), India. Briefly, 2 x10^3 cells were seeded in each well and were incubated with gradient concentrations of 5a, 6a-j compounds for 72 h. The cells were then fixed with 50% trichloroacetic acid and stained with 0.4% sulforhodamine B (SRB) dissolved in 1% acetic acid. Cells were then washed with1% acetic acid to remove excess (unbound) SRB. The protein-bound SRB was dissolved with 10 mM Tris base and the absorbance at 564 nm was determined using a SPECTRAmax PLUS 384 microplate spectrophotometer.

[2] = test system: human cervix cell line (HeLa); test: In vitro cell proliferation assay (SRB), HeLa; format: cell-based; conditions: 72 h, mean ± S.D.
Experimental: as §1

tubulin = target: T1, tubulin (Bos taurus, UniProt P81947+Q6B856); test: Tubulin binding assay (quenching of intrinsic tryptophan fluorescence); design: species or system bovine
T1 construct: Tubulin devoid of microtubule-associated proteins (MAPs) was purified from bovine brain; from tissue; host or cells: bovine brain
Experimental: Tubulin devoid of microtubule-associated proteins (MAPs) was purified from bovine brain by cycles of temperature-dependent polymerization and depolymerization as described previously followed by phosphocellulose chromatography. The concentration of the tubulin was determined by the method of Bradford using BSA as the standard. Purified tubulin was quickly frozen as drops in liquid nitrogen and stored at - 80 °C until used.
Noscapinoids quench the […] intrinsic tryptophan fluorescence of tubulin in a concentration-dependent fashion as described previously. This has allowed an easy method for measuring the tubulin-noscapinoids interactions. Briefly, the compounds 5a, 6a-j (0-200 µM) were incubated with 2 µM tubulin in PEM buffer (100 mM PIPES, pH 6.8, 3 mM MgSO4, and 1 mM EGTA) at 37 °C for 45 min. After incubation, the samples were excited at 295 nm. The relative intrinsic fluorescence intensity of the tubulin was then monitored in the absence and presence of the compound 5a, 6a-j using a Varian Cary Eclipse Fluorescence Spectrophotometer (Agilent Technologies, CA, USA). The emission readings were recorded at 335 nm. We used a 0.3 cm path-length cuvette to minimize the inner filter effects caused by the absorbance of the noscapinoids. In addition, the inner filter effects were corrected using a formula F corrected = F observed·antilog [(A ex + A em)/2], where A ex is the absorbance at the excitation wavelength and A em is the absorbance at the emission wavelength. The equilibrium dissociation constant (KD) was determined by the formula: 1/a = KD/[free ligand] + 1, where a is the fractional occupancy and [free ligand] is the concentration of free ligand. The fractional occupancy (a) was determined by the formula a = ΔF/ΔF max, where ΔF is the change in fluorescence intensity when tubulin and its ligand are in equilibrium and ΔF max is the value of maximum fluorescence change when tubulin is completely bound with its ligand. ΔF max was calculated by plotting 1/ΔF versus 1/ligand, using total ligand concentration as the first estimate of free ligand concentration. Three independent experiments were performed for each noscapinoid.

[3] = test system: human lung adenocarcinoma epithelial cell line (A549); test: In vitro cell proliferation assay (SRB), A549; format: cell-based; conditions: 72 h, mean ± S.D.
Experimental: as §1

[4] = test system: human lymphoblast cell line (CEM); test: In vitro cell proliferation assay (SRB), CEM; format: cell-based; conditions: 72 h, mean ± S.D.
Experimental: as §1

MCF-7 cells = test: Cell cycle analysis by flow cytometry (propidium iodide); format: cell-based, human; conditions: MCF-7, 25 µM
Experimental: The flow cytometric evaluation of the cell cycle status was performed as described previously. Briefly, cells (2 x 10^6) treated with the noscapinoids up to 72 h were centrifuged, washed twice with cold PBS, and fixed in 70% ethanol. Tubes containing the cell pellets were stored at 4 °C for minimum of 24 h. Cells were then centrifuged at 1000 x g for 10 min and the supernatant was discarded. The pellets were washed twice with 5 ml of PBS and then stained with 0.5 ml of propidium iodide (0.1% of Pl + 0.6% Triton-X in PBS) and 0.5 ml of RNase A (2 mg/ml) for 45 minutes in dark. Samples were then analyzed on a FACS Calibur flow cytometer ([…]).

[5] = test system: human breast epithelial cell line (MCF-7); test: In vitro cell proliferation assay (SRB), MCF-7; format: cell-based; conditions: MCF7, 72 h, mean ± S.D.
Experimental: as §1

T1 sequence (Q6B856 whole entry): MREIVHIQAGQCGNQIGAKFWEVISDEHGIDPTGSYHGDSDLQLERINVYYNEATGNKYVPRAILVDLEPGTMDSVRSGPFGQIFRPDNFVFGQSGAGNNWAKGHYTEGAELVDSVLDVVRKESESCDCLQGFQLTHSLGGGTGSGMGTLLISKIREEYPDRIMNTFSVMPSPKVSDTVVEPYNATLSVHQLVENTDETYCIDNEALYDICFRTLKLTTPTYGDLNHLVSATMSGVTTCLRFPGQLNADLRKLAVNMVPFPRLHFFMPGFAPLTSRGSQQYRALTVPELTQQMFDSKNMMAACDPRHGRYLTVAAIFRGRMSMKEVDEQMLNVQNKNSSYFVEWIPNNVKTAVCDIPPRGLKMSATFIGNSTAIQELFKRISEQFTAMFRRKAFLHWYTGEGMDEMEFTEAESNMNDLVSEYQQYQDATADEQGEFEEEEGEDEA
T1 sequence (P81947 whole entry): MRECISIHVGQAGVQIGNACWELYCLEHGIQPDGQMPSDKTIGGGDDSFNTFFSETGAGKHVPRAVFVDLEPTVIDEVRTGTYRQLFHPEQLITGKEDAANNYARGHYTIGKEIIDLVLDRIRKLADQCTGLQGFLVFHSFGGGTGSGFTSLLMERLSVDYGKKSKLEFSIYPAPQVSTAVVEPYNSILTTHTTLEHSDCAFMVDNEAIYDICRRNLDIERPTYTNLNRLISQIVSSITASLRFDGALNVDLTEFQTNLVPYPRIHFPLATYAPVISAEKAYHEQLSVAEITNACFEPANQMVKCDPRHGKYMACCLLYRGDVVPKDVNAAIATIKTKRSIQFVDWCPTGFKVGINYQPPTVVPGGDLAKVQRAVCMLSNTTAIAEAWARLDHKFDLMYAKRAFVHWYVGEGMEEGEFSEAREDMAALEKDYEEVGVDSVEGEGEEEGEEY

IC50 [1]: 6.7 to 26.9 µM
melting point: 65 °C
IC50 [2]: 15.3 ± 0.5 µM
Kd (tubulin; 2 µM tubulin, PEM buffer pH 6.8, 37 °C, 45 min, mean ± S.D.): 38 ± 4 µM
Experimental ΔGbind (tubulin; calculated from KD, ΔGbind = RT ln KD, T = 298 K): -6.036 kcal/mol
Tubulin binding affinity relative to the parent compound noscapine (tubulin; ratio of KD values): ~ 4.0 times
IC50 [3]: 26.9 ± 1.4 µM
IC50 [5]: 24.5 ± 0.8 µM
SMILES: COc1ccc2c(c1OC)C(=O)O[C@@H]2[C@H]1c2c(cc3c(c2OC)OCO3)CCN1Cc1cccc(Br)c1 [Compound 6f, (S)-3-((R)-6-(3-bromobenzyl)-4-methoxy-5,6,7,8-tetrahydro-[1,3]dioxolo[4,5-g]isoquinolin-5-yl)-6,7-dimethoxyisobenzofuran-1(3H)-one]
IC50 [4]: 6.7 ± 0.3 µM
Cell cycle parameters % G0/G1, 24 hours (MCF-7 cells; 24 hours): 11.82%
Cell cycle parameters % G2/M, 24 hours (MCF-7 cells; 24 hours): 67.48%
Cell cycle parameters % S, 24 hours (MCF-7 cells; 24 hours): 6.29%
Cell cycle parameters % Sub-G1, 24 hours (MCF-7 cells; 24 hours): 9.47%
Cell cycle parameters % G0/G1, 72 hours (MCF-7 cells; 72 hours): 6.38%
Cell cycle parameters % G2/M, 72 hours (MCF-7 cells; 72 hours): 37.29%
Cell cycle parameters % S, 72 hours (MCF-7 cells; 72 hours): 4.72%
Cell cycle parameters % Sub-G1, 72 hours (MCF-7 cells; 72 hours): 50.44%
